In patent US20240148895A1, “ANTIBODY-DRUG CONJUGATE” (Eisai R&D Management Co., Ltd., priority 2022, published 2024):

Key:
[1] = test system: AsPC-1/Cas9 cell line (human pancreatic cancer cell line AsPC-1); test: AsPC-1/Cas9 growth inhibition assay; type: cell-based; settings: 5 days culture, CellTiter Glo 2.0, read-out: IC50 (Absolute IC50, 50% inhibition of cell growth)
Experimental: Human pancreatic cancer cell line AsPC-1 (ATCC Number CRL1682) was infected with Edit-R Lentiviral hCMV-Blast-Cas9 Nuclease Particle (Dharmacon, VCAS10124) in the presence of 8 μg/ml of Hexadimethrine bromide (Sigma, H9268), and after 24 hours it was exposed to 10 μg/ml of Blastcidin S (Thermo, A11139) to remove the uninfected cells, thereby establishing an AsPC-1/Cas9 cell line. The cells were maintenance cultured in a 5% CO2 incubator (37° C.) using RPMI-1640 (FujiFilm-Wako Pure Chemical Industries) containing 10% fetal bovine serum (FBS: SIGMA 173012) and penicillin/streptomycin (FujiFilm-Wako Pure Chemical Industries) (hereunder referred to simply as “culture medium”). After adding 25 μL of AsPC-1/Cas9 cell suspension prepared to 3.2×10^4 cells/mL using culture medium into each well of a 384-well plate (Greiner 781091), the cells were cultured overnight in a 5% CO2 incubator (37° C.). On the following day, 25 μL of the test substance diluted with culture medium was added to each well, and culturing was continued for 5 days in a 5% CO2 incubator (37° C.). Next, 25 μL of CellTiter Glo™ 2.0 (Promega) was added to each well, and the plate contents were mixed for 5 minutes using a plate mixer. The plate was stationed for 10 minutes at room temperature while shielded from light, and then the luminous intensity was measured with an ENVISION™ (Perkin-Elmer). The luminescence value of the wells with addition of test substance was determined as a relative value, with 100% as the luminescence value of the wells with cells but without addition of the test substance and 0% as the luminescence value of the wells without cells. A plot of test substance concentration against luminescence value % approximated a 4-parameter logistic curve, and the test substance concentration necessary for 50% inhibition of cell growth (Absolute IC50) was calculated, and is shown in Table 10. In Table 10, the antibodies listed as “CEACAM6_#84.7” are the anti-CEACAM6 antibody of Example 301-1, the antibodies listed as “003” are the anti-folate receptor α antibody of Example 301-2, and the antibodies listed as “345A12” are the anti-mesothelin antibody of Example 301-3.
According the same method as in the AsPC-1/Cas9 growth inhibition assay described in Example 313 above, the test substance concentration necessary for 50% inhibition of cell growth (Absolute IC50) in the ADC described in Example 318 was calculated and is shown in Table 12.

[2] = target: T1, BRD4(BD1+BD2) protein (Homo sapiens, UniProt O60885); test: BRD4 binding inhibition assay (TR-FRET); settings: BRD4(BD1+BD2) TR-FRET Assay Kit, reaction 2 hours at room temperature; read-out: IC50 (concentration necessary for 50% inhibition of BRD4 binding activity)
T1 construct: 5 μL of BRD4(BD1+BD2) protein solution prepared to 3.6 ng/μL; purchased BPS Bioscience Inc. 32612
Experimental: This assay measures binding inhibition activity of the test substance on the bromodomain of BRD4 protein.
BRD4 binding inhibition activity assay was carried out using a BRD4(BD1+BD2)TR-FRET Assay Kit (BPS Bioscience Inc. Catalog #32612), according to the attached instructions. In a flat-bottom 384-well white plate (Greiner 781080) there was added 8 μL of Tb-labeled donor/dye-labeled acceptor solution diluted 160-fold with 1×BRD TR-FRET Assay Buffer1, with 5 μL of BET Bromodomain Ligand diluted 40-fold with 1×BRD TR-FRET Assay Buffer1 in the test substance measuring wells and the Positive Control wells, and 5 μL of Non-acetylated Ligand1 diluted 40-fold with 1×BRD TR-FRET Assay Buffer1 in the Negative Control wells. After adding 2 μL of test substance diluted with 1×BRD TR-FRET Assay Buffer1 to the test substance measuring wells, and 2 μL of Dimethyl Sulfoxide solution diluted 100-fold with 1×BRD TR-FRET Assay Buffer1 to the Positive Control wells and Negative Control wells, 5 μL of BRD4(BD1+BD2) protein solution prepared to 3.6 ng/μL with 1×BRD TR-FRET Assay Buffer1 was added and reaction was conducted for 2 hours at room temperature. The fluorescence intensity was measured at 620 nm and 665 nm with irradiation of 340 nm excitation light into each well, using an Envision™ (Perkin-Elmer). The ratio of fluorescence intensity at […] with respect to fluorescence intensity at 620 nm for each well was recorded as the TR-FRET ratio, and the TR-FRET ratio in the presence of the test substance was calculated with the Positive Control well value as 100%, subtracting the Negative Control well value. The concentration of test substance necessary for 50% inhibition of BRD4 binding activity (IC50) was calculated from the TR-FRET ratio, and shown in Table 1.

SMILES | IC50 [1] [nM] | IC50 [2] [nM]
COc1cc(=O)n(C)cc1-c1ccc2nc(N)nc(C(CO)(CC3CC3)c3cccnc3)c2c1 (stereo not drawn) [Example 25, 5-(2-Amino-4-(1-cyclopropyl-3-hydroxy-2-(pyridin-3-yl)propan-2-yl)quinazolin-6-yl)-4-methoxy-1-methylpyridin-2(1H)-one] | 0.057 | 130
C#CC1CCN(c2nc(C(CO)(OC3CC3)c3ccccc3)c3cc(-c4cn(C)c(=O)c5[nH]ccc45)ccc3n2)CC1 (stereo not drawn) [Example 26, 4-(4-(1-Cyclopropoxy-2-hydroxy-1-phenylethyl)-2-(4-ethynylpiperidin-1-yl)quinazolin-6-yl)-6-methyl-1,6-dihydro-7H-pyrrolo[2,3-c]pyridin-7-one] | 0.032 | 47
Cn1cc(-c2ccc3nc(N4CCC(N5CCC(C)(N)CC5)CC4)nc(C(CO)(OC4CC4)c4ccccc4)c3c2)c2cc[nH]c2c1=O (stereo not drawn) [Example 27, 4-(2-(4-Amino-4-methyl-[1,4′-bipiperidin]-1′-yl)-4-(1-cyclopropoxy-2-hydroxy-1-phenylethyl)quinazolin-6-yl)-6-methyl-1,6-dihydro-7H-pyrrolo[2,3-c]pyridin-7-one] | – | 80
C[C@@H]1CN(CC2CCN(c3nc(C(CN)(OC4CC4)c4ccccc4)c4cc(-c5cn(C)c(=O)c6[nH]ccc56)ccc4n3)CC2)[C@@H](C)CN1 (stereo partly drawn) [Example 28, 4-(4-(2-Amino-1-cyclopropoxy-1-phenylethyl)-2-(4-(((2S,5R)-2,5-dimethylpiperazin-1-yl)methyl)piperidin-1-yl)quinazolin-6-yl)-6-methyl-1,6-dihydro-7H-pyrrolo[2,3-c]pyridin-7-one] | 0.023 | 82
C#CCNC1(C)CCN(C2CCN(c3nc(C(CO)(OC4CC4)c4ccccc4)c4cc(-c5cn(C)c(=O)c6[nH]ccc56)ccc4n3)CC2)CC1 (stereo not drawn) [Example 29, 4-(4-(1-Cyclopropoxy-2-hydroxy-1-phenylethyl)-2-(4-methyl-4-(prop-2-yn-1-ylamino)-[1,4′-bipiperidin]-1′-yl)quinazolin-6-yl)-6-methyl-1,6-dihydro-7H-pyrrolo[2,3-c]pyridin-7-one] | 0.041 | 57
C#CC1(O)CCN(C2CCN(c3nc(C(CO)(OC4CC4)c4ccccc4)c4cc(-c5cn(C)c(=O)c6[nH]ccc56)ccc4n3)CC2)CC1 (stereo not drawn) [Example 30] | < 0.015 | 27
C[C@@H]1CN(C2CCN(c3nc(C(CN)(OC4CC4)c4ccccc4)c4cc(-c5cn(C)c(=O)c6[nH]ccc56)ccc4n3)CC2)[C@@H](C)CN1 (stereo partly drawn) [Example 31] | 0.037 | 61
CCCC(CO)(CCC)c1nc(N2CCC(CN3CCNCC3)CC2)nc2ccc(-c3cn(C)c(=O)cc3OC)cc12 [Example 32, 5-(4-(4-(Hydroxymethyl)heptan-4-yl)-2-(4-(piperazin-1-ylmethyl)piperidin-1-yl)quinazolin-6-yl)-4-methoxy-1-methylpyridin-2(1H)-one] | – | 81
COc1cc(=O)n(C)cc1-c1ccc2nc(N3CCC(N4CCC(C)(N)CC4)CC3)nc(C(CO)(OC3CC3)c3cccc4ccccc34)c2c1 (stereo not drawn) [Example 33, 5-(2-(4-Amino-4-methyl-[1,4′-bipiperidin]-1′-yl)-4-(1-cyclopropoxy-2-hydroxy-1-(naphthalen-1-yl)ethyl)quinazolin-6-yl)-4-methoxy-1-methylpyridin-2(1H)-one] | < 0.015 | 440
CNCCN(C)C(=O)OCC(OC1CC1)(c1ccccc1)c1nc(N2CCC(CN3C[C@@H](C)NC[C@@H]3C)CC2)nc2ccc(-c3cn(C)c(=O)cc3OC)cc12 (stereo partly drawn) [Example 34, 2-Cyclopropoxy-2-(2-(4-(((2S,5R)-2,5-dimethylpiperazin-1-yl)methyl)piperidin-1-yl)-6-(4-methoxy-1-methyl-6-oxo-1,6-dihydropyridin-3-yl)quinazolin-4-yl)-2-phenylethyl methyl(2-(methylamino)ethyl)carbamate] | – | 91
Cn1cc(-c2ccc3nc(N4CCC(OC5CCNCC5)CC4)nc(C(CO)(c4ccccc4)c4ccccc4)c3c2)c2ccoc2c1=O [Example 35, 4-(4-(2-Hydroxy-1,1-diphenylethyl)-2-(4-(piperidin-4-yloxy)piperidin-1-yl)quinazolin-6-yl)-6-methylfuro[2,3-c]pyridine-7(6H)-one] | 0.038 | 87
Cc1cc(-c2ccc3nc(N)nc([C@@](CO)(OC4CC4)c4ccccc4)c3c2)cn(C)c1=O [Example 36, (S)-5-(2-Amino-4-(1-cyclopropoxy-2-hydroxy-1-phenylethyl)quinazolin-6-yl)-1,3-dimethylpyridin-2(1H)-one] | 0.035 | 25
